From patent US11632972B2, “S-nitrosothiol compounds and their combinations with nitrosamine blocking agents for safe food preservation” (YISSUM RESEARCH DEVELOPMENT COMPANY OF THE HEBREW …, priority 2017, dated 2023)

Columns and labels:
[1] = Formation of N-nitroso-N-methylaniline from N-methylaniline with nitrosilating agent (2.5 mM) in citrate buffer at 37° C.; details: 2.5 mM agent, 2.5 mM N-methylaniline, pH 6.2
Description: The HPLC separation was performed on a Merck/Hitachi HPLC system consisting of a LaChrom L 7100 pump and a LaChrom DAD L 7450 detector. The system was operated with a data processor working with a LaChrom interface D 7000 and the EZChrom Elite 3.3.1 software. The mixture was separated on a Kinetex EVO C18 column (250×4.6 mm, 5 μm) using a gradient elution system, solvent A was 5% acetonitrile in water (v/v) and B was acetonitrile. Gradient conditions were initial=0% B, 25 min=70% B and 30 min=100% B. The flow rate was constant at 1.0 mL min^−1. The injection loop volume was 20 μL, absorbance was monitored at 272 nm.
The experiment of Example 1 was repeated with a tenfold increase of concentration of the reactants. That is, reaction mixtures were prepared by mixing in citrate buffer, at pH=3.0 and at pH=6.2, N-methylaniline (2.5 mM) and NaCl (2.5 mM) together with an equimolar amount of the tested nitrosilating agent, used either alone or in combination with ascorbic acid, as set out below: […]

[2] = Effect on the color of the meat (Hunter L*, a*, b*, colorimeter); set-up: species or system beef; details: aerobic conditions, period of 24 h
Description: Nitrite is known to be responsible for the characteristic pink color associated with cured meat products and flavor stabilization. The color development and color stability of ground beef treated S-nitroso-cysteine and S-nitroso-N-acetylcysteine after heating to 72° C. was compared to the color of ground beef treated with nitrite. A portable colorimeter (X-rite) was used to measure Hunter color lightness, redness and yellowness (L*, a*, b*) values of ground beef samples treated with the different additives and heated in a microwave oven (Dow, S-Korea, at 800 W) to 72° C. in the center. The instrument was standardized using white and black standard plates.

[3] = tested on: naturally occurring bacteria; assay: Aerobic colony count in ground beef shoulder; details: 2.5 mM preservative; for bacteria count (aerobic colony count): after 1 week of storage at 4° C.; for bacteria concentration (aerobic colony count): after 4 weeks at 4° C.
Description: 10 gr of ground beef shoulder was mixed with 1 ml (25 mM) aqueous solution of the tested preservative (Sodium nitrite, S-nitroso-cysteine and S-nitroso-N-acetylcysteine) or DDW for control and 1 ml of NaCl solution (10% w/v). The final concentrations were 2.5 mM preservative (where Kg meat=L) and 1% (w/w) NaCl. The meat was divided to 1 gr portions and placed in open vacuum bags, then heated in a water bath at 75° C. for 15 min and sealed by […] C100 at a vacuum of 8 mbar. The bags were transferred to 4° C. for cooling and storage. After time periods of 1 hr, 1 week and 4 weeks elapsed, the bags were opened in a hood and 1 gr of meat was homogenized in a sterile grinder with 9 ml of sterile saline, then the homogenate was diluted further with saline and the diluents were plated on BHI agar plates. The plates were incubated at 30° C. for 24 hours then colonies were counted and CFU calculated.

[4] = tested on: naturally occurring bacteria; assay: Aerobic colony count in smoked beef shoulder pastrami; details: pastrami stored at 4° C. for three months; amount equivalent to 150 ppm sodium nitrite; plates 30° C. 24 hr
Description: Aerobic colony count of naturally occurring bacteria in smoked beef shoulder pastrami: 5 gr of the pastrami manufactured in a meat factory as described above were homogenized in a sterile grinder with 45 ml of sterile saline, then further diluted with saline. The diluents were plated on BHI agar plates and incubated at 30° C. for 24 hr then colonies were counted and CFU calculated.

Row | SMILES | kinetics of N-nitroso-methylaniline formation (UV absorbance at 270 nm versus time) [1] | color stability (ΔE*) over time [2] | bacteria count (aerobic colony count) [3] | bacteria concentration (aerobic colony count) [3] | aerobic colony count (concentration of bacteria) [4]
1 | CC(=O)N[C@@H](CSN=O)C(=O)O [S-nitroso-N-acetylcysteine] | significantly lesser | remained stable | ~2.0*10^2 cfu/ml | lower bacteria concentration | 7*10^3 CFU/ml
2 | N[C@@H](CSN=O)C(=O)O [S-nitroso-cysteine, S-nitrosocysteine] | reacts rapidly with N-methylaniline to produce progressively increasing amounts of nitrosamine |  | ~2.0*10^2 cfu/ml | lower bacteria concentration | 
3 | O=NO [sodium nitrite] |  | decreased over time | 5.8*10^3 cfu/ml | ~10^8 | 8*10^3 CFU/ml
